The values that follow come from paper PMC8781304, “Arene-Ruthenium(II) Complexes with Carbothiamidopyrazoles as a Potential Alternative for Antibiotic Resistance in Human” (Molecules, 2022).

Series [1] concerns S. epidermidis ATCC 12228. Kind of series: Synergy with oxacillin and vancomycin, partial checkerboard broth microdilution. It is filed as cell-based, Staphylococcus epidermidis. To be noted: for FIC (Oxa) / FIC (Van): MIC antibiotic in combination/MIC antibiotic alone; for MIC Oxa in Combination: oxacillin with the complex at ½ MIC (NH4PF6 250 µg/mL); for MIC Van in Combination: vancomycin with the complex at ½ MIC (NH4PF6 250 µg/mL); for MIC: Staphylococcus epidermidis.

Another series relates to S. aureus ATCC 29213. The description is as above. It is filed as cell-based, Staphylococcus aureus. Particulars: for FIC (Oxa) / FIC (Van): MIC antibiotic in combination/MIC antibiotic alone; for MIC Oxa in Combination: oxacillin with the complex at ½ MIC (NH4PF6 250 µg/mL); for MIC Van in Combination: vancomycin with the complex at ½ MIC (NH4PF6 250 µg/mL); for MIC: Staphylococcus aureus.

Series [2] deals with Candida albicans ATCC 10231. Description: MIC and MBC/MFC by broth microdilution. In kind it is cell-based. To be noted: C. albicans ATCC 10231. On the procedure:
(§1) Reference strains of bacteria and fungi: Staphylococcus aureus ATCC 29213, Staphylococcus epidermidis ATCC 12228, Enterococcus faecalis ATCC 29212, Pseudomonas aeruginosa ATCC 25619, Proteus vulgaris ATCC 8427, and Candida albicans ATCC 10231 (Manassas, VA, USA) were used to screen the antimicrobial activity of the arene-ruthenium(II) complexes 3a-3d, NH4PF6 and selected antibiotics. The microorganisms were grown for 24 h (bacteria) or 48 h (fungi) in 35-37 °C in tryptic-soy agar (TSA; BTL Sp. z o.o., Łódź, Poland) or Sabouraud's dextrose agar (SDA; BTL Sp. z o.o., Łódź, Poland) according to nutritional requirements. Microbial suspensions at a density of about 5 × 10^5 CFU/mL were prepared in Mueller-Hinton broth (MHB; BTL Sp. z o.o., Łódź, Poland) or RPMI-1640 medium (Sigma, St. Louis, MO, USA) for bacteria and fungi, respectively. […] Louis, MO, USA). Stock solutions of the lyophilized compounds were freshly prepared in 100% DMSO (POCh, Gliwice, Poland) for the complexes, or in water for injection (Sigma, St. Louis, MO, USA) in the case of antibiotics. […] MIC and MBC/MFC were defined as the lowest concentrations of the compounds inhibiting bacterial/fungal growth or able to kill added microbial inoculum, respectively, and were evaluated as described by […] et al.. Experiments were carried out in duplicate.
In general terms: Dilution methods test growth across graded concentrations, often in twofold steps.

The test system of series [3] is Enterococcus faecalis ATCC 29212. Kind of series: MIC and MBC/MFC by broth microdilution. In kind it is cell-based. Particulars: E. faecalis ATCC 29212. On the procedure: as §1
Series [4] concerns Proteus vulgaris ATCC 8427. Description: MIC and MBC/MFC by broth microdilution. In kind it is cell-based. To be noted: P. vulgaris ATCC 8427. On the procedure: as §1
Series [5] deals with Pseudomonas aeruginosa ATCC 25619. Kind of series: MIC and MBC/MFC by broth microdilution. It is filed as cell-based. To be noted: P. aeruginosa ATCC 25619. On the procedure:
as §1

For series [6], the system named is Staphylococcus aureus ATCC 29213. Kind of series: MIC and MBC/MFC by broth microdilution. It is filed as cell-based. To be noted: S. aureus ATCC 29213. On the procedure: as §1
Series [7] has as its system Staphylococcus epidermidis ATCC 12228. Description: MIC and MBC/MFC by broth microdilution. It is filed as cell-based. Particulars: S. epidermidis ATCC 12228. On the procedure: as §1
For series [8], the system named is Staphylococcus aureus ATCC 29213. Description: Fluorescence microscopy, Hoechst 33258 / propidium iodide viability. Particulars: S. aureus ATCC 29213; MIC concentration, 24 h. It is filed as cell-based. On the procedure: (§2) Staphylococcus aureus ATCC 29213 and Staphylococcus epidermidis ATCC 12228 strains were treated with tested compounds 2a–2d and 3a–3d at a concentration 1 × MIC for 24h, while untreated cells were used as a growth control. After incubation, the cells were harvested and a suspension of 1 × 10^5 cells/mL in PBS was prepared. Following this, 1 µl of the fluorescent dyes Hoechst 33258 and propidium iodide (15 µg/mL each) (Sigma, St. Louis, MO, USA) were added. The obtained mixture was incubated in the dark at room temperature for 15–20 min. After incubation, the cell suspensions, placed on glass slides, were analyzed under an Olympus IX 70 fluorescence microscope (Shinjuku, Tokyo, Japan), using a 360–370 nm UV filter. Photos were taken at 10 × 20 magnification.

Series [9] concerns Staphylococcus epidermidis ATCC 12228. Described as above. In kind it is cell-based. To be noted: S. epidermidis ATCC 12228; MIC concentration, 24 h. On the procedure: as §2
Series [10] has as its system human foreskin fibroblast HFF-1 (ATCC-SCRC-1041). Description: Cytotoxicity, MTT reduction assay. It is filed as cell-based. On the procedure: The cytotoxicity of arene-ruthenium(II) complexes 3a–3d was determined using the MTT (3-(4,5-dimethylthiazol-2-yl)-2,5-diphenyltetrazolium bromide; Sigma, St. Louis, MO, USA) reduction assay and a human foreskin fibroblast HFF-1 culture (ATCC-SCRC-1041) (LGC Standards Sp. z o.o., Poland) at a final concentration range of 3.9–500 µM. The HFF-1 cells were cultured in Dulbecco’s Modified Eagle’s Medium (DMEM; Sigma, St. Louis, MO, USA) with 15% fetal bovine serum (FBS; BioWest, Nuaillé, France) and penicillin/streptomycin (100 × stock solution; BioWest, Nuaillé, France), 1 × 10^6 cell/mL (100 µL/well) in 96-well tissue culture plates (Nunc, Roskilde, Denmark) for 24 h at 37 °C/5% CO2. The cells were then exposed to arene-ruthenium(II) complexes for 24 h at 37 °C. The control (untreated) cells were exposed to culture medium alone or culture medium containing 2% DMSO to exclude the effect of the solvent used to prepare the stock solutions of the tested complexes. Next, fresh culture medium (100 µL/well) and MTT (1.5 mg/mL, 50 µL/well) were added, and cells were incubated for two hours under the above conditions. MTT was […] blue formazan crystals produced by the metabolically active cells. Finally, the MTT solution was removed and replaced with 100 µL/well of 20% sodium dodecyl sulfate (SDS; Sigma, St. Louis, MO, USA) for 24 h (room temperature) to dissolve the blue formazan. Based on the absorbance (λ = 550 nm) of tested and control cells (100% viability), the percentage of cell viability after exposure was calculated. For each sample, the experiment was performed twice.

In brackets after ≈: the same amount, converted by molar mass. Read-outs that look alike come from different tables or passages of the source.

In the case of `Cc1ccc(C(C)C)cc1.Cc1ccc(C(C)C)cc1.[Cl][Ru][Cl].[Cl][Ru][Cl]` [Dimer, dichloro(p-cymene)ruthenium(II) dimer], in series [1] (S. epidermidis ATCC 12228), the “Correlation with Oxa and Van (synergy), in words” value (from here on “Correlation with Oxa and Van”) is given as “did not show any synergistic effect”; the “FIC (Oxa)” value is 1; the “FIC (Van)” value was determined as 2; the “MIC Oxa in Combination” value worked out at 0.25 µg/mL. Further, the “MIC Van in Combination” value in [1] (S. epidermidis ATCC 12228) is on record as 1 µg/mL. For the same compound, in the series on S. aureus ATCC 29213 (S. aureus ATCC 29213), the “Correlation with Oxa and Van” value is “did not show any synergistic effect”; the “FIC (Oxa)” value amounted to 1; the “FIC (Van)” value stood at 1; the “MIC Oxa in Combination” value was 0.250 µg/mL. For the same compound, in the series with S. aureus ATCC 29213 (S. aureus ATCC 29213), the “MIC Van in Combination” value is reported as 0.50 µg/mL.

Turning to `OC(Cn1cncn1)(Cn1cncn1)c1ccc(F)cc1F` [Flu, fluconazole, reference compound], in series [2], the MBC/MFC was above 16 µg/mL and the MIC – broadly, the smallest concentration in the dilution series that meets the test's criterion for growth inhibition – is above 16 µg/mL. In series [2] (Candida albicans, ATCC10231, read-out: MIC), the MIC is above 16 µg/mL.

For `CNC(C)C1CCC(N)C(OC2C(N)CC(N)C(OC3OCC(C)(O)C(NC)C3O)C2O)O1` (centres unmarked) [Gen, gentamicin, reference compound], the results for the MBC/MFC in [3], in series [4] and in [5] were below 2 µg/mL, 1 µg/mL (≈ 2.09 µM) and 16 µg/mL (≈ 33.5 µM), respectively. The MIC is below 2 µg/mL in series [3]; below 2 µg/mL in series [3] (Enterococcus faecalis, ATCC29212, read-out: MIC); 1 µg/mL (≈ 2.09 µM) in [4] (Proteus vulgaris, ATCC8427, read-out: MIC); 8 µg/mL (≈ 16.8 µM) in [5] (Pseudomonas aeruginosa, ATCC25619, read-out: MIC).

Regarding `F[P-](F)(F)(F)(F)F.[NH4+]` [NH4PF6, Ammonium hexafluorophosphate], the “Correlation with Oxa and Van” value (in series [1] (S. epidermidis ATCC 12228); with S. aureus ATCC 29213 (S. aureus ATCC 29213)) was “did not show any synergistic effect” throughout. The “FIC (Oxa)” value (in series [1] (S. epidermidis ATCC 12228); in the series with S. aureus ATCC 29213 (S. aureus ATCC 29213)) was 1 in each case. The “FIC (Van)” value in series [1] (S. epidermidis ATCC 12228) is given as 2; in the series with S. aureus ATCC 29213 (S. aureus ATCC 29213), 1. Moreover, the “MIC Oxa in Combination” value in series [1] (S. epidermidis ATCC 12228) worked out at 0.25 µg/mL; in the series with S. aureus ATCC 29213 (S. aureus ATCC 29213), 0.250 µg/mL. Also, the “MIC Van in Combination” value came to 1 µg/mL in series [1] (S. epidermidis ATCC 12228) and 0.50 µg/mL in the series on S. aureus ATCC 29213 (S. aureus ATCC 29213). The MBC/MFC in [3], in [6], in series [2], in [4], in series [5] and in series [7] was above 1000 µg/mL each time. Moreover, the MIC in [3], in [6], in [2], in series [4], in [5] and in series [7] was above 1000 µg/mL in each case.

For `Cc1onc(-c2ccccc2)c1C(=O)N[C@@H]1C(=O)N2[C@@H]1SC(C)(C)[C@@H]2C(=O)O` [Oxa, oxacillin, reference compound], the MIC in series [1] (ATCC12228, S. epidermidis ATCC 12228, oxacillin without complex, read-out: MIC Oxa Alone) was found to be 0.25 µg/mL; with S. aureus ATCC 29213 (ATCC29213, S. aureus ATCC 29213, oxacillin without complex, read-out: MIC Oxa Alone), 0.25 µg/mL; in series [6] (Staphylococcus aureus, ATCC29213, read-out: MIC) it was 0.25 µg/mL (≈ 0.623 µM); in [7] (Staphylococcus epidermidis, ATCC12228, read-out: MIC), 0.25 µg/mL (≈ 0.623 µM). The MBC/MFC in series [6] and in series [7] was 0.5 µg/mL (≈ 1.25 µM) throughout.

As to `CN[C@H](CC(C)C)C(=O)N[C@H]1C(=O)N[C@@H](CC(N)=O)C(=O)N[C@H]2C(=O)N[C@H]3C(=O)N[C@H](C(=O)N[C@H](C(=O)O)c4cc(O)cc(O)c4-c4cc3ccc4O)[C@H](O)c3ccc(c(Cl)c3)Oc3cc2cc(c3O[C@@H]2O[C@H](CO)[C@@H](O)[C@H](O)[C@H]2O[C@H]2C[C@](C)(N)[C@H](O)[C@H](C)O2)Oc2ccc(cc2Cl)[C@H]1O` [Van, vancomycin, reference compound], the minimal inhibitory concentration (MIC) stood at 0.5 µg/mL in series [1] (ATCC12228, read-out: MIC Van Alone) and 0.5 µg/mL in the series on S. aureus ATCC 29213 (ATCC29213, read-out: MIC Van Alone).

Regarding “[(η ^6 -p-cymene)Ru(1-[amino(thioxo)methyl]-5-hydroxy-3-methyl-1H-pyrazole)[PF6] [Compound 3d]”, the “FIC (Oxa)” value in series [1] (S. epidermidis ATCC 12228) came to 0.25; in the series with S. aureus ATCC 29213 (S. aureus ATCC 29213), 1. Also, the “FIC (Van)” value in [1] (S. epidermidis ATCC 12228) was determined as 0.06; with S. aureus ATCC 29213 (S. aureus ATCC 29213) it was 2. Moreover, the “MIC Oxa in Combination” value is on record as 0.06 µg/mL in series [1] (S. epidermidis ATCC 12228) and 0.250 µg/mL in the series with S. aureus ATCC 29213 (S. aureus ATCC 29213). The results for the “MIC Van in Combination” value (in [1] (S. epidermidis ATCC 12228); in the series on S. aureus ATCC 29213 (S. aureus ATCC 29213)) were 0.03 µg/mL and 1 µg/mL, respectively. The “Change in bacterial viability (Hoechst 33258 / PI fluorescence)” value in series [8] and in [9] was “no significant changes in the viability” throughout. In addition, inhibition in series [10] (HFF-1, MTT, 24 h, tested 3.9–500 μM) was half-maximal at 892 µM (IC50). For the same compound, in [10] (range 3.9–500 μM), the “HFF-1 viability (lowest)” value was at least 75%. The MBC/MFC in series [3] is given as 500 µg/mL; in series [6], 500 µg/mL; in series [2] it was above 1000 µg/mL; in series [4], above 1000 µg/mL; in [5] it was 1000 µg/mL; in series [7], 250 µg/mL. In addition, the minimal inhibitory concentration (MIC) in series [3] was 500 µg/mL; in series [6] it was 125 µg/mL; in series [2] it was above 1000 µg/mL; in series [4], above 1000 µg/mL; in [5] it was 1000 µg/mL; in series [7] it was 125 µg/mL.
